Source: the supplement of paper PMC10883282

Columns and labels:
Test in all cases: relative viability vs DMSO control (72 h) (fraction); higher = more viable cells
[1] = tested on: RD-ES
Method in brief: (§1)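 Sarcoma cell lines were plated in 384 wells to reach 80–90% confluence, treated after 24 h with 2.5 µl of serially diluted compound and held 72 h at 37 °C, 5% CO2. Relative viability was taken as percent growth from ATPLite readings, averaged over up to triplicate wells. The values were rescaled so that 1 marks full and 0 marks none.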

[2] = tested on: HS729
Method in brief: as §1

[3] = tested on: RD
Method in brief: as §1

[4] = tested on: HT1080
Method in brief: as §1

[5] = tested on: SW684
Method in brief: as §1

[6] = tested on: SW1353
Method in brief: as §1

[7] = tested on: KHOS-240S
Method in brief: as §1

[8] = tested on: SYO-1
Method in brief: as §1

[9] = tested on: KHOS-NP
Method in brief: as §1

[10] = tested on: SW872
Method in brief: as §1

[11] = tested on: SK-LMS-1
Method in brief: as §1

[12] = tested on: G401
Method in brief: as §1

N#CCC1(n2cc(-c3ncnc4[nH]ccc34)cn2)CN(C2CCN(C(=O)c3ccnc(C(F)(F)F)c3F)CC2)C1 [Itacitinib]
Conditions | relative viability
[1], 0.00017 µM | 0.92
[1], 0.00051 µM | 0.949
[1], 0.00152 µM | 0.919
[1], 0.00457 µM | 0.956
[1], 0.01372 µM | 0.927
[1], 0.04115 µM | 0.913
[1], 0.1235 µM | 0.909
[1], 0.3704 µM | 0.909
[1], 1.111 µM | 0.924
[1], 3.333 µM | 0.887
[1], 10 µM | 0.853
[2], 0.00017 µM | 1
[2], 0.00051 µM | 0.966
[2], 0.00152 µM | 0.937
[2], 0.00457 µM | 0.889
[2], 0.01372 µM | 0.833
[2], 0.04115 µM | 0.885
[2], 0.1235 µM | 0.792
[2], 0.3704 µM | 0.822
[2], 1.111 µM | 0.806
[2], 3.333 µM | 0.758
[2], 10 µM | 0.751
[3], 0.00017 µM | 1.01
[3], 0.00051 µM | 1.02
[3], 0.00152 µM | 1.02
[3], 0.00457 µM | 1.07
[3], 0.01372 µM | 1.08
[3], 0.04115 µM | 1.05
[3], 0.1235 µM | 1.05
[3], 0.3704 µM | 1.03
[3], 1.111 µM | 1.04
[3], 3.333 µM | 1.04
[3], 10 µM | 1.06
[4], 0.00017 µM | 1.04
[4], 0.00051 µM | 1.02
[4], 0.00152 µM | 1.04
[4], 0.00457 µM | 1.01
[4], 0.01372 µM | 1.03
[4], 0.04115 µM | 0.991
[4], 0.1235 µM | 1.03
[4], 0.3704 µM | 1.004
[4], 1.111 µM | 0.993
[4], 3.333 µM | 1.02
[4], 10 µM | 1
[5], 0.00017 µM | 1.1
[5], 0.00051 µM | 1.09
[5], 0.00152 µM | 1.09
[5], 0.00457 µM | 1.1
[5], 0.01372 µM | 1.07
[5], 0.04115 µM | 1.07
[5], 0.1235 µM | 1.06
[5], 0.3704 µM | 1.08
[5], 1.111 µM | 1.1
[5], 3.333 µM | 1.06
[5], 10 µM | 0.977
[6], 0.00017 µM | 0.987
[6], 0.00051 µM | 1
[6], 0.00152 µM | 0.982
[6], 0.00457 µM | 0.937
[6], 0.01372 µM | 0.96
[6], 0.04115 µM | 0.939
[6], 0.1235 µM | 0.955
[6], 0.3704 µM | 0.937
[6], 1.111 µM | 0.933
[6], 3.333 µM | 0.929
[6], 10 µM | 0.87
[7], 0.00017 µM | 1.05
[7], 0.00051 µM | 1.04
[7], 0.00152 µM | 1.04
[7], 0.00457 µM | 1.06
[7], 0.01372 µM | 1.02
[7], 0.04115 µM | 1.01
[7], 0.1235 µM | 0.984
[7], 0.3704 µM | 0.999
[7], 1.111 µM | 0.97
[7], 3.333 µM | 0.95
[7], 10 µM | 0.923
[8], 0.00017 µM | 0.969
[8], 0.00051 µM | 0.921
[8], 0.00152 µM | 0.927
[8], 0.00457 µM | 0.91
[8], 0.01372 µM | 0.859
[8], 0.04115 µM | 0.825
[8], 0.1235 µM | 0.802
[8], 0.3704 µM | 0.792
[8], 1.111 µM | 0.752
[8], 3.333 µM | 0.72
[8], 10 µM | 0.698
[9], 0.00017 µM | 1.087
[9], 0.00051 µM | 1.11
[9], 0.00152 µM | 1.09
[9], 0.00457 µM | 1.07
[9], 0.01372 µM | 1.06
[9], 0.04115 µM | 1.048
[9], 0.1235 µM | 1.035
[9], 0.3704 µM | 1.01
[9], 1.111 µM | 0.991
[9], 3.333 µM | 0.942
[9], 10 µM | 0.914
[10], 0.00017 µM | 1.012
[10], 0.00051 µM | 1.03
[10], 0.00152 µM | 0.975
[10], 0.00457 µM | 0.972
[10], 0.01372 µM | 0.971
[10], 0.04115 µM | 0.94
[10], 0.1235 µM | 0.891
[10], 0.3704 µM | 0.911
[10], 1.111 µM | 0.901
[10], 3.333 µM | 0.902
[10], 10 µM | 0.859
[11], 0.00017 µM | 1.03
[11], 0.00051 µM | 1.02
[11], 0.00152 µM | 0.994
[11], 0.00457 µM | 0.976
[11], 0.01372 µM | 0.987
[11], 0.04115 µM | 0.997
[11], 0.1235 µM | 0.958
[11], 0.3704 µM | 0.954
[11], 1.111 µM | 0.969
[11], 3.333 µM | 0.913
[11], 10 µM | 0.883
[12], 0.00017 µM | 0.99
[12], 0.00051 µM | 0.967
[12], 0.00152 µM | 0.921
[12], 0.00457 µM | 0.912
[12], 0.01372 µM | 0.962
[12], 0.04115 µM | 0.929
[12], 0.1235 µM | 0.902
[12], 0.3704 µM | 0.953
[12], 1.111 µM | 0.931
[12], 3.333 µM | 0.913
[12], 10 µM | 0.862
